Test results reported in PubChem BioAssay AID2060483 (Molecular Pharmacology Branch, DTP, NCI, 2025).
pIC50: −log10 of the molar value.

Tested on: K24384-001-R-PDC complex spheroids, viability
Experiment: Anticancer human tumor K24384-001-R-PDC patient-derived pancreatic adenocarcinoma cell line growth inhibition [GQUAD]
Details: for pIC50: curve of first compound; for viability, T/C: stronger effect = lower value
From the text: DNA G-quadruplex Stabilizer Agents in Combinations in Complex Spheroids
A high-throughput screen of multi-cell type tumor spheroids was designed to identify active combinations of DNA G-quadruplex stabilizer agents and targeted small molecules. Complex spheroids include a stromal component modeled by human endothelial cells (HUVEC) and fibroblasts modeled by human mesenchymal stem cells (MSCs). The concentration ranges selected for each drug and investigational agent were based upon clinically achievable concentrations if the clinical Cmax of the agent was known.
Compounds. The drugs and investigational agents: pidnarulex (CX-5461; NSC782164), APTO-253 (NSC789042), BRACO-19 (NSC847499), peposertib (NSC802822), ceralasertib (NSC780249), elimusertib (NSC800525), camonsertib (NSC841442), AZD-1390 (NSC803789), olaparib (NSC753686), talazoparib (NSC767125), ART-558 (NSC835418), sotorasib (NSC818433), MRTX-1133 (NSC836407), SN-38 (NSC673596), topotecan (NSC609699), etoposide (NSC141540), doxorubicin (NSC123127), gemcitabine (NSC613327), 5-fluorouracil (NSC19893), paclitaxel (NSC125973), vemurafenib (NSC761431), panobinostat (NSC761190), R-306465 (JNJ-16241199; NSC773264), adavosertib (NSC754352), TP-3654 (NSC805149), carboplatin (NSC241240), KSQ-4279 (NSC840948), and staurosporine (NSC755774) were obtained from the National Cancer Institute (NCI) Developmental Therapeutics Program Chemical Repository (34). The FDA-approved anticancer drug set is available from the NCI Developmental Therapeutics Program. […] The stock solutions were prepared in dimethyl sulfoxide (DMSO, Sigma-Aldrich, St. Louis, MO, cat. D2650) at 800-fold the tested concentration and stored at -70 degrees C prior to their use. All drugs and investigational agents were tested over a range starting from a high concentration at or near the clinical Cmax and decreasing in half-log increments. If the clinical Cmax for an agent had not been determined, the highest concentration tested was 10 microM.
2.3 Cell Culture. All cells were maintained in an incubator at 37 degrees C and 5% CO2 with 95% humidity. The PDC lines were cultured according to standard operating procedures established by the NCI PDMR. All PDCs were thawed and cultured in Matrigel-coated flasks prepared with a working solution of 1X Ham's F-12 nutrient mix, without supplementation (Invitrogen, cat. 11765054), 100 U/mL penicillin-streptomycin (Invitrogen, cat. 15140122), and 2.5% Matrigel (Corning Inc., cat. 354248) for the first three passages. The 857933-349-R-J2-PDC line was cultured in 6C/Colon 1B media, which includes advanced DMEM/F-12 (Thermo Fisher Scientific, cat. 12634028), 10 mM HEPES (Thermo Fisher Scientific, cat. 15630080), 1X GlutaMAX supplement (Thermo Fisher Scientific, cat. 35050061), 0.1 mg/mL primocin (InvivoGen, cat. ant-pm-2), 10% defined fetal bovine serum, heat inactivated (HyClone Laboratories Inc., cat. SH30070.03HI), 50% L-WRN conditioned media (ATCC, cat. CRL-3276), 1.25 mM N-Acetyl-L-cysteine (Sigma-Aldrich, cat. A9165), 10 mM nicotinamide (Sigma-Aldrich, cat. N0636), 1X B-27 supplement (Thermo Fisher Scientific, cat. 17504044), 1X N-2 supplement (Thermo Fisher Scientific, cat. 17502048), 10 microM Y-27632 dihydrochloride (Tocris Bioscience, cat. 1254), and 50 ng/mL human EGF recombinant protein (Thermo Fisher Scientific, cat. PHG0311). The 485176-168-R4-J1-PDC line was cultured in Panc media, which includes all 6C/Colon 1B media components plus 100 ng/mL human FGF-10 (Thermo Fisher Scientific, cat. 100-26), 500 nM SB-431542 (Selleckchem, cat. S1067), and gastrin (Tocris, cat. 3006).
[…]

[1] = second compound 0.0316 µM, first compound 0.0316 µM
[2] = second compound 0.0316 µM, first compound 0.1 µM
[3] = second compound 0.0316 µM, first compound 0.316 µM
[4] = second compound 0.0316 µM, first compound 1 µM
[5] = second compound 0.0316 µM, first compound 3.16 µM
[6] = second compound 0.0316 µM, first compound 10 µM
[7] = second compound 0.1 µM, first compound 0.0316 µM
[8] = second compound 0.1 µM, first compound 0.1 µM
[9] = second compound 0.1 µM, first compound 0.316 µM
[10] = second compound 0.1 µM, first compound 1 µM
[11] = second compound 0.1 µM, first compound 3.16 µM
[12] = second compound 0.1 µM, first compound 10 µM
[13] = second compound 0.316 µM, first compound 0.0316 µM
[14] = second compound 0.316 µM, first compound 0.1 µM
[15] = second compound 0.316 µM, first compound 0.316 µM
[16] = second compound 0.316 µM, first compound 1 µM
[17] = second compound 0.316 µM, first compound 3.16 µM
[18] = second compound 0.316 µM, first compound 10 µM
[19] = second compound 1 µM, first compound 0.0316 µM
[20] = second compound 1 µM, first compound 0.1 µM
[21] = second compound 1 µM, first compound 0.316 µM
[22] = second compound 1 µM, first compound 1 µM
[23] = second compound 1 µM, first compound 3.16 µM
[24] = second compound 1 µM, first compound 10 µM
[25] = second compound 3.16 µM, first compound 0.0316 µM
[26] = second compound 3.16 µM, first compound 0.1 µM
[27] = second compound 3.16 µM, first compound 0.316 µM
[28] = second compound 3.16 µM, first compound 1 µM
[29] = second compound 3.16 µM, first compound 3.16 µM
[30] = second compound 3.16 µM, first compound 10 µM
[31] = second compound 10 µM, first compound 0.0316 µM
[32] = second compound 10 µM, first compound 0.1 µM
[33] = second compound 10 µM, first compound 0.316 µM
[34] = second compound 10 µM, first compound 1 µM
[35] = second compound 10 µM, first compound 3.16 µM
[36] = second compound 10 µM, first compound 10 µM
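Note: spheroids exposed to compounds for seven days.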

CC1COCCN1c1cc(C2(O)CC3CCC(C2)O3)c2cnn(-c3ccn[nH]3)c2n1 (centres undefined) + Cc1cnc(CNC(=O)c2c(=O)c3ccc(N4CCCN(C)CC4)nc3n3c2sc2ccccc23)cn1 was tested, and the pIC50 (second compound 0.0316 µM) was 7.48, the pIC50 (second compound 0.1 µM) was greater than 7.50 and the pIC50 (second compound 0.316 µM) was greater than 7.50. It also gave a pIC50 (second compound 1 µM) greater than 7.50, a pIC50 (second compound 3.16 µM) greater than 7.50 and a pIC50 (second compound 10 µM) greater than 7.50. The viability, T/C [1] was 51.9%, the viability, T/C [2] was 39.6% and the viability, T/C [3] was 33.7%. The viability, T/C [4] was 25.1%, the viability, T/C [5] was 26.4% and the viability, T/C [6] was 12.3%. It also gave a viability, T/C [7] of 43.4%, a viability, T/C [8] of 37.5% and a viability, T/C [9] of 31.1%. It also gave a viability, T/C [10] of 32.4%, a viability, T/C [11] of 26.3% and a viability, T/C [12] of 10.8%. For the same compound, the viability, T/C [13] was 40.6%, the viability, T/C [14] was 37.8% and the viability, T/C [15] was 31%. For the same compound, the viability, T/C [16] was 31.9%, the viability, T/C [17] was 23.6% and the viability, T/C [18] was 10.8%. For the same compound, the viability, T/C [19] was 39.2%, the viability, T/C [20] was 42.2% and the viability, T/C [21] was 31.2%. It also gave a viability, T/C [22] of 26.7%, a viability, T/C [23] of 18.1% and a viability, T/C [24] of 8.33%. For the same compound, the viability, T/C [25] was 42.2%, the viability, T/C [26] was 35.7% and the viability, T/C [27] was 29.5%. It also gave a viability, T/C [28] of 27.2%, a viability, T/C [29] of 16.4% and a viability, T/C [30] of 8.63%. It also gave a viability, T/C [31] of 27.5%, a viability, T/C [32] of 20.4% and a viability, T/C [33] of 23.7%. The viability, T/C [34] was 19.4%, the viability, T/C [35] was 6.65% and the viability, T/C [36] was 0.55%.
Compound C=CC(=O)N1CCN(c2nc(=O)n(-c3c(C)ccnc3C(C)C)c3nc(-c4c(O)cccc4F)c(F)cc23)C(C)C1 (centres undefined) + CN(C)c1ccc(Nc2c3ccc(NC(=O)CCN4CCCC4)cc3nc3cc(NC(=O)CCN4CCCC4)ccc23)cc1 has a pIC50 (second compound 0.0316 µM) of less than 5.00, a pIC50 (second compound 0.1 µM) of less than 5.00 and a pIC50 (second compound 0.316 µM) of less than 5.00. For the same compound, the pIC50 (second compound 1 µM) was less than 5.00, the pIC50 (second compound 3.16 µM) was less than 5.00 and the pIC50 (second compound 10 µM) was less than 5.00. The viability, T/C [1] was 95.5%, the viability, T/C [2] was 93.2% and the viability, T/C [3] was 107%. The viability, T/C [4] was 104%, the viability, T/C [5] was 99.6% and the viability, T/C [6] was 93.3%. The viability, T/C [7] was 100%, the viability, T/C [8] was 102% and the viability, T/C [9] was 112%. It also gave a viability, T/C [10] of 121%, a viability, T/C [11] of 123% and a viability, T/C [12] of 87.8%. It also gave a viability, T/C [13] of 100%, a viability, T/C [14] of 101% and a viability, T/C [15] of 105%. It also gave a viability, T/C [16] of 96.6%, a viability, T/C [17] of 128% and a viability, T/C [18] of 98.6%. It also gave a viability, T/C [19] of 101%, a viability, T/C [20] of 129% and a viability, T/C [21] of 113%. The viability, T/C [22] was 115%, the viability, T/C [23] was 147% and the viability, T/C [24] was 85.7%. The viability, T/C [25] was 101%, the viability, T/C [26] was 100% and the viability, T/C [27] was 100%. For the same compound, the viability, T/C [28] was 93%, the viability, T/C [29] was 110% and the viability, T/C [30] was 79%. The viability, T/C [31] was 81.6%, the viability, T/C [32] was 99.7% and the viability, T/C [33] was 82.3%. The viability, T/C [34] was 109%, the viability, T/C [35] was 89% and the viability, T/C [36] was 62.2%.
